Data reported in patent US20250256007A1, “GELMA POLYMER COMPOSITIONS COMPRISING CELLS” (GelMEDIX, Inc., priority 2022, published 2025).
Read-outs that look alike come from different tables or passages of the source.

Tests used:
RPE cells = assay: Cytotoxicity studies of propagators with RPE cells
From the text: Cytotoxicity studies were also completed with RPE cells for: NVC, NVP, EGDA, and phenylacetyl bromide (BAP), with 10% DMSO as a control.

[1] = Young's Modulus of hydrogels with radical propagators; assay type: physicochemical; conditions: propagator at 10 uL/mL in G5(80) [5% GelMA, 80% DoM], gelled
Method: (§1) Each of the three propagators (NVC, NVP, EGDA) were combined with G5(80) [5% GelMA, 80% DoM] at 10 uL/mL propagator concentration, and then gelled. Average Young's Modulus (kPa) for resulting hydrogels were as follows: EGDA [7.2494 kPa]; NVP [6.4995 kPa]; NVC [3.4744 kPa]. NVP and EGDA were also tested for a minimum concentration in G5 (10) and G5(80) which would still allow for hydrogel formation (1 minute crosslinking at ˜0.43 W). Minimum propagator concentrations for hydrogel formation were as follows: G5 (10) [NVP—5 uL/mL; EGDA—1.5 uL/mL]; G5 (80) [NVP—0.3 uL/mL; EGDA—0.1 uL/mL]

[2] = Minimum propagator concentration for hydrogel formation; assay type: physicochemical; conditions: 1 minute crosslinking at ˜0.43 W
Method: as §1

Row | SMILES | Cell viability (cytotoxicity) (RPE cells; after 18 hours of cell incubation, RPE cells, FIG. 19) | Average Young's Modulus [1] [kPa] | Cell viability (cytotoxicity) (RPE cells) | Minimum propagator concentration for hydrogel formation ([2]; in G5 (10)) [uL/mL] | Minimum propagator concentration for hydrogel formation ([2]; in G5 (80)) [uL/mL]
1 | O=C(Br)Cc1ccccc1 [BAP, phenylacetyl bromide] | higher average cell viability than NVC |  |  |  | 
2 | C=CC(=O)OCCOC(=O)C=C [EGDA, Ethylene Glycol Diacrylate] |  | 7.2494 | low cell viability | 1.5 | 0.1
3 | C=CN1CCCCCC1=O [NVC, N-vinylcaprolactam] |  | 3.4744 |  |  | 
4 | C=CN1CCCC1=O [NVP, N-Vinylpyrrolidone] |  | 6.4995 | higher average cell viability than NVC | 5 | 0.3
